Columns and labels:
[1] = target: T1, CYP2C8 (Homo sapiens, UniProt P10632); assay: CYP Inhibition Assay (CYP2C8, human liver microsomes, paclitaxel substrate); type: in vitro ADME; conditions: pH 7.4; pooled human liver microsomes 0.1 mg/mL, probe substrate paclitaxel
T1 construct: Pooled human microsomes were obtained from Sekisui XenoTech, KS; tissue Sekisui XenoTech, KS; host or cells: pooled human liver microsomes
T1 sequence (P10632 1-490): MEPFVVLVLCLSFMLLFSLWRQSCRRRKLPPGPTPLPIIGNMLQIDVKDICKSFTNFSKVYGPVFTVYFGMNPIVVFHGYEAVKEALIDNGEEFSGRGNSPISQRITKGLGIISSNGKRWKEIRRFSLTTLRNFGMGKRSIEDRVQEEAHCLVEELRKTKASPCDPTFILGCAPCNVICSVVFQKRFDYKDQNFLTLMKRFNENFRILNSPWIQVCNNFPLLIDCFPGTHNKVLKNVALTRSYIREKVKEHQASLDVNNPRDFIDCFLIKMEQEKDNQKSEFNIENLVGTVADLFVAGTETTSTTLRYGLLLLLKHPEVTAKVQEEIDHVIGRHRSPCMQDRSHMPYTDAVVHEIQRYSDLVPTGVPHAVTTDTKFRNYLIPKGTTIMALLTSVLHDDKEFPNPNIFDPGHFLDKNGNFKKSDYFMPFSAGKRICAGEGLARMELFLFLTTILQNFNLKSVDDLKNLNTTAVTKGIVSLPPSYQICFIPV
In short: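 CYP2C8 activity read as 6α-hydroxypaclitaxel formation by LC-MS/MS, with % inhibition versus vehicle control. Reactions ran 5 min at 37° C, pH 7.4 phosphate buffer, 0.1 mg/mL pooled human liver microsomes, 1 mM NADPH, duplicate wells.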

[2] = target: T2, GR (Homo sapiens, UniProt P04150); assay: In Vitro GR Luciferase Reporter Assay (antagonist mode, CHO-K1-GR-MMTV-Luc reporter cells); type: cell-based; conditions: antagonist mode, 10 nM Dexamethasone
T2 construct: expressed in transfected cells; host or cells: CHO-K1
T2 sequence (P04150 1-777): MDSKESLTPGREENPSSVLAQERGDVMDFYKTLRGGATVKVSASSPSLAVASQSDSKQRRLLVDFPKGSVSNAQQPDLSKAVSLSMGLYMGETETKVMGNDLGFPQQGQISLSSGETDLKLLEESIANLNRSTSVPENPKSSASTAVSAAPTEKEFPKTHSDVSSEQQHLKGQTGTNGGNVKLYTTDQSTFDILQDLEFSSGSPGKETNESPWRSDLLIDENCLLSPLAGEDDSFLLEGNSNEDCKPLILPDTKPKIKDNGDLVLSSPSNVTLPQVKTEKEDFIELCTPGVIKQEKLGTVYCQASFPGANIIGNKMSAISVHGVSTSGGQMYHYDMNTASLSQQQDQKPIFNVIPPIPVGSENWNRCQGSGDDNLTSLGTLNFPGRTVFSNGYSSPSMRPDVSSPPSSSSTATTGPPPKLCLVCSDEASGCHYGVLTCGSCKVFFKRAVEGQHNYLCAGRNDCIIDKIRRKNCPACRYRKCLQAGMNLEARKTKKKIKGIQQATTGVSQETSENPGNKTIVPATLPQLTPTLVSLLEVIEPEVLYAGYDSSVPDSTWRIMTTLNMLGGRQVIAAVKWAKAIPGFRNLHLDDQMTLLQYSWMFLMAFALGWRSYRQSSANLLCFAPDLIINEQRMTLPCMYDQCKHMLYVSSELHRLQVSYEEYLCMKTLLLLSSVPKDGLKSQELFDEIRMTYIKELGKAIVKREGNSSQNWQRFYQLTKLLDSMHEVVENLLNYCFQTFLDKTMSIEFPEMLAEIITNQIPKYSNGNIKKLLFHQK
In short: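 Antagonist mode: compounds (8 serial 1:5 dilutions) added to GR-MMTV-luciferase CHO-K1 reporter cells co-exposed to 10 nM dexamethasone final, in phenol red-free DMEM plus 10% CSS. After roughly 18-24 h at 37° C, OneGlo luminescence read and IC50 calculated.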

inhibition at 5 min [1]	IC50 [2]	SMILES
25 to 50%	≤ 100 nM	Cn1cnc(S(=O)(=O)N(C2CC(F)(F)C2)[C@H]2CCC3=Cc4c(cnn4-c4ccc(F)cc4)C[C@]3(C(=O)c3cc(C(F)(F)F)ccn3)C2)n1 [Example 329, N-(3,3-difluorocyclobutyl)-N-((4aS,6S)-1-(4-fluorophenyl)-4a-(4-(trifluoromethyl)picolinoyl)-4,4a,5,6,7,8-hexahydro-1H-benzo[f]indazol-6-yl)-1-methyl-1H-1,2,4-triazole-3-sulfonamide]
25 to 50%	≤ 100 nM	Cn1cnc(S(=O)(=O)N(CC(F)F)[C@H]2CCC3=Cc4c(cnn4-c4ccc(F)cc4)C[C@]3(C(=O)c3cc(C(F)(F)F)ccn3)C2)n1 [Example 330, N-(2,2-difluoroethyl)-N-((4aS,6S)-1-(4-fluorophenyl)-4a-(4-(trifluoromethyl)picolinoyl)-4,4a,5,6,7,8-hexahydro-1H-benzo[f]indazol-6-yl)-1-methyl-1H-1,2,4-triazole-3-sulfonamide]
≤ 25%	≤ 100 nM	Cn1cnc(S(=O)(=O)N(CC(F)F)[C@H]2CCC3=Cc4c(cnn4-c4ccc(F)cc4)C[C@]3(C(=O)c3ncc(C(F)(F)F)s3)C2)n1 [Example 331, N-(2,2-difluoroethyl)-N-((4aS,6S)-1-(4-fluorophenyl)-4a-(5-(trifluoromethyl)thiazole-2-carbonyl)-4,4a,5,6,7,8-hexahydro-1H-benzo[f]indazol-6-yl)-1-methyl-1H-1,2,4-triazole-3-sulfonamide]
≤ 25%	≤ 100 nM	Cn1cnc(S(=O)(=O)N(C2CC(F)(F)C2)[C@H]2CCC3=Cc4c(cnn4-c4ccc(F)cc4)C[C@]3(C(=O)c3ncc(C(F)(F)F)s3)C2)c1 [Example 332, N-(3,3-difluorocyclobutyl)-N-((4aS,6S)-1-(4-fluorophenyl)-4a-(5-(trifluoromethyl)thiazole-2-carbonyl)-4,4a,5,6,7,8-hexahydro-1H-benzo[f]indazol-6-yl)-1-methyl-1H-imidazole-4-sulfonamide]
≤ 25%	≤ 100 nM	O=C(c1ncc(C(F)(F)F)s1)[C@]12Cc3cnn(-c4ccc(F)cc4)c3C=C1CC[C@H](N(C1CC1)S(=O)(=O)c1ccc(Cl)cn1)C2 [Example 333, 5-chloro-N-cyclopropyl-N-((4aS,6S)-1-(4-fluorophenyl)-4a-(5-(trifluoromethyl)thiazole-2-carbonyl)-4,4a,5,6,7,8-hexahydro-1H-benzo[f]indazol-6-yl)pyridine-2-sulfonamide]
50 to 75%	≤ 100 nM	O=C(c1cc(C(F)(F)F)ccn1)[C@]12Cc3cnn(-c4ccc(F)cc4)c3C=C1CC[C@H](N(C1CC1)S(=O)(=O)c1cncc(Cl)c1)C2 [Example 334, 5-chloro-N-cyclopropyl-N-((4aS,6S)-1-(4-fluorophenyl)-4a-(4-(trifluoromethyl)picolinoyl)-4,4a,5,6,7,8-hexahydro-1H-benzo[f]indazol-6-yl)pyridine-3-sulfonamide]
≤ 25%	≤ 100 nM	Cn1cnc(S(=O)(=O)N(C2CC(F)(F)C2)[C@H]2CCC3=Cc4c(cnn4-c4ccc(F)cc4)C[C@]3(C(=O)c3cc(F)ccn3)C2)c1 [Example 335, N-(3,3-difluorocyclobutyl)-N-((4aS,6S)-1-(4-fluorophenyl)-4a-(4-fluoropicolinoyl)-4,4a,5,6,7,8-hexahydro-1H-benzo[f]indazol-6-yl)-1-methyl-1H-imidazole-4-sulfonamide]
50 to 75%	≤ 100 nM	Cn1ccc(S(=O)(=O)N(CC(F)F)[C@H]2CCC3=Cc4c(cnn4-c4ccc(F)cc4)C[C@]3(C(=O)c3ncc(C(F)(F)F)s3)C2)n1 [Example 337, N-(2,2-difluoroethyl)-N-((4aS,6S)-1-(4-fluorophenyl)-4a-(5-(trifluoromethyl)thiazole-2-carbonyl)-4,4a,5,6,7,8-hexahydro-1H-benzo[f]indazol-6-yl)-1-methyl-1H-pyrazole-3-sulfonamide]
75 to 90%	≤ 100 nM	Cn1ccc(S(=O)(=O)N(CC(F)F)[C@H]2CCC3=Cc4c(cnn4-c4ccc(F)cc4)C[C@]3(C(=O)c3cc(F)ccn3)C2)n1 [Example 338, N-(2,2-difluoroethyl)-N-((4aS,6S)-1-(4-fluorophenyl)-4a-(4-fluoropicolinoyl)-4,4a,5,6,7,8-hexahydro-1H-benzo[f]indazol-6-yl)-1-methyl-1H-pyrazole-3-sulfonamide]
25 to 50%	≤ 100 nM	Cn1cnc(S(=O)(=O)N(C2CC(F)(F)C2)[C@H]2CCC3=Cc4c(cnn4-c4ccc(F)cc4)C[C@]3(C(=O)c3cc(Cl)ccn3)C2)c1 [Example 339, N-((4aS,6S)-4a-(4-chloropicolinoyl)-1-(4-fluorophenyl)-4,4a,5,6,7,8-hexahydro-1H-benzo[f]indazol-6-yl)-N-(3,3-difluorocyclobutyl)-1-methyl-1H-imidazole-4-sulfonamide]
25 to 50%	≤ 100 nM	O=C(c1cc(C(F)(F)F)ccn1)[C@]12Cc3cnn(-c4ccc(F)cc4)c3C=C1CC[C@H](N(CC(F)F)S(=O)(=O)c1ccc(Cl)nc1)C2 [Example 341, 6-chloro-N-(2,2-difluoroethyl)-N-((4aS,6S)-1-(4-fluorophenyl)-4a-(4-(trifluoromethyl)picolinoyl)-4,4a,5,6,7,8-hexahydro-1H-benzo[f]indazol-6-yl)pyridine-3-sulfonamide]
25 to 50%	≤ 100 nM	CO[C@]1(C)C[C@H](N([C@H]2CCC3=Cc4c(cnn4-c4ccc(F)cc4)C[C@]3(C(=O)c3ncc(C(F)(F)F)s3)C2)S(=O)(=O)c2ccn(C)n2)C1 [Example 342, N-((4aS,6S)-1-(4-fluorophenyl)-4a-(5-(trifluoromethyl)thiazole-2-carbonyl)-4,4a,5,6,7,8-hexahydro-1H-benzo[f]indazol-6-yl)-N-((1s,3R)-3-methoxy-3-methylcyclobutyl)-1-methyl-1H-pyrazole-3-sulfonamide]
25 to 50%	≤ 100 nM	C[C@]1(O)C[C@@H](N([C@H]2CCC3=Cc4c(cnn4-c4ccc(F)cc4)C[C@]3(C(=O)c3cc(Cl)ccn3)C2)S(=O)(=O)c2ccc(F)cc2)C1 [Example 344, N-((4aS,6S)-4a-(4-chloropicolinoyl)-1-(4-fluorophenyl)-4,4a,5,6,7,8-hexahydro-1H-benzo[f]indazol-6-yl)-4-fluoro-N-((1s,3R)-3-hydroxy-3-methylcyclobutyl)benzenesulfon-amide]
25 to 50%	≤ 100 nM	O=C(c1cc(F)ccn1)[C@]12Cc3cnn(-c4ccc(F)cc4)c3C=C1CC[C@H](N(C1CC(F)(F)C1)S(=O)(=O)c1ccc(Cl)nc1)C2 [Example 346, 6-chloro-N-(3,3-difluorocyclobutyl)-N-((4aS,6S)-1-(4-fluorophenyl)-4a-(4-fluoropicolinoyl)-4,4a,5,6,7,8-hexahydro-1H-benzo[f]indazol-6-yl)pyridine-3-sulfonamide]
25 to 50%	≤ 100 nM	Cn1cnc(S(=O)(=O)N(C2CC2)[C@H]2CCC3=Cc4c(cnn4-c4ccc(F)cc4)C[C@]3(C(=O)c3cc(F)ccn3)C2)n1 [Example 347, N-cyclopropyl-N-((4aS,6S)-1-(4-fluorophenyl)-4a-(4-fluoropicolinoyl)-4,4a,5,6,7,8-hexahydro-1H-benzo[f]indazol-6-yl)-1-methyl-1H-1,2,4-triazole-3-sulfonamide]
25 to 50%	≤ 100 nM	Cn1cnc(S(=O)(=O)N(C2CC2)[C@H]2CCC3=Cc4c(cnn4-c4ccc(F)cc4)C[C@]3(C(=O)c3cc(Cl)ccn3)C2)n1 [Example 348, N-((4aS,6S)-4a-(4-chloropicolinoyl)-1-(4-fluorophenyl)-4,4a,5,6,7,8-hexahydro-1H-benzo[f]indazol-6-yl)-N-cyclopropyl-1-methyl-1H-1,2,4-triazole-3-sulfonamide]
